Assays:
[1] = tested on: human TLR7 mutant sequence comprising a deletion in the second leucine-rich repeat; assay: TLR7 cellular NFκB-luc reporter assay, mutant TLR7 with deletion in the second leucine-rich repeat; format: cell-based; set-up: unit not given here; conditions: lowest effective concentration, TLR7 mutant with deletion in second leucine-rich repeat
Procedure, shortened: (§1)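 HEK293 cells transiently co-transfected with CMV-driven mutant TLR7 or TLR8 plasmid plus NFκB-luc reporter, cultured 48 h at 37 °C, then exposed to compound for 6 h at 37 °C, 5% CO2. Luciferase luminescence measured; dose-response curves from quadruplicates.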

[2] = biological target: T1, human TLR8 (wild type sequence) (Homo sapiens, UniProt Q9NR97); assay: TLR8 cellular NFκB-luc reporter assay, wild type TLR8; format: cell-based; set-up: unit not given here; conditions: lowest effective concentration, wild type TLR8 (compounds 1-73)
T1 construct: expressed in transfected cells; host or cells: HEK293
T1 sequence (Q9NR97 27-1041): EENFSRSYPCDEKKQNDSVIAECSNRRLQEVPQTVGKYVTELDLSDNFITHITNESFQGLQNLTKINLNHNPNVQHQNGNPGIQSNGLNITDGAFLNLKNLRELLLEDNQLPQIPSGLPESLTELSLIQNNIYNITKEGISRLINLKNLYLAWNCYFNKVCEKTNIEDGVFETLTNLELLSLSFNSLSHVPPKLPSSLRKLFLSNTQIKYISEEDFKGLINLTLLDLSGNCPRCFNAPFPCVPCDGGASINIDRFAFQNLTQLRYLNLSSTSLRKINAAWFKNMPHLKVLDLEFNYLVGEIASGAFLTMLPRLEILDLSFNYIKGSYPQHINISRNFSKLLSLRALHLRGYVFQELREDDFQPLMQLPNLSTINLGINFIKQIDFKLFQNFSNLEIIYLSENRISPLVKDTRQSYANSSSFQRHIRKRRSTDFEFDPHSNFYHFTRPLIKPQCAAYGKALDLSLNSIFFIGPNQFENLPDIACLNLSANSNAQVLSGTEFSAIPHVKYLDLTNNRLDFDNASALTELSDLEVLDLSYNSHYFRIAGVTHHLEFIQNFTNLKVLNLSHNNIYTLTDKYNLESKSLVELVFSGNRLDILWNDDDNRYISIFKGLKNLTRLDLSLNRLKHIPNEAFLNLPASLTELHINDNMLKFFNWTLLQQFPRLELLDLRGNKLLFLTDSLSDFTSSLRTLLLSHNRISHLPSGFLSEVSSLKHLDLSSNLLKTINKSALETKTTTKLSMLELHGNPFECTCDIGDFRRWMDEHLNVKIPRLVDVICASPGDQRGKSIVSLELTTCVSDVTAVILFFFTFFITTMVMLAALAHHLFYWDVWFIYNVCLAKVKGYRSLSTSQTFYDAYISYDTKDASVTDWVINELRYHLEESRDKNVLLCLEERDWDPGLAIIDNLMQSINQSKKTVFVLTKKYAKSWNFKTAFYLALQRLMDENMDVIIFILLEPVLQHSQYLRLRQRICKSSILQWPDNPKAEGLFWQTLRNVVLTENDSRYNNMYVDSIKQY
Procedure, shortened: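 First, HEK293 cells were co-transfected with TLR7 or TLR8 (native or LRR2-deletion) and NFκB-luc and cultured 48 h. Next, cells were incubated with compound for 6 h at 37 °C. Finally, luciferase was read; LEC came from dose-response curves run in quadruplicate.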

[3] = tested on: human TLR8 mutant sequence comprising a deletion in the second leucine-rich repeat; assay: TLR8 cellular NFκB-luc reporter assay, mutant TLR8 with deletion in the second leucine-rich repeat; format: cell-based; set-up: unit not given here; conditions: lowest effective concentration, TLR8 mutant with deletion in second leucine-rich repeat
Procedure, shortened: as §1

[4] = tested on: HCV replicon in Huh-7 luc/neo cells; assay: Suppression of HCV replicon replication by conditioned media from compound-treated PBMC; format: cell-based, HCV type 1 b; conditions: Hepatitis C virus, Huh-7; read-out: PBMC-HUH7_EC50
Procedure, shortened: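 Human PBMC (≥2 donors, RPMI + 10% human AB serum, 2×10^5 cells/well) incubated overnight with compounds; supernatant transferred onto Huh-7 luc/neo HCV 1b replicon cells. After 24 h, replication read as luciferase activity. Recombinant interferon α-2a served as standard.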

Row | Compound | TLR7-dIRR2_LEC [1] | TLR8-wt_LEC [2] | TLR8-dIRR2_LEC [3] | EC50 [4] [nM]
1 | CCCCNc1nc(N)ncc1OCCCc1ccc(OC)cc1 [Compound 2] | 0.02 | 1.34 | 0.31 | 40
2 | CCCCNc1nc(N)nc(C)c1Oc1ccccc1 [Compound 3] | 21.69 | 4.91 | 1.66 | 10800
3 | CCCCNc1nc(N)ncc1OCc1ncc(C)c(OC)c1C [Compound 6] | 0.01 | 0.16 | 0.10 | 20
4 | CCCCNc1nc(N)nc(C)c1Oc1ccccc1OC [Compound 7] | 1.11 | 5.84 | 3.03 | 3110
5 | CCCCNc1nc(N)ncc1OCc1ccccc1F [Compound 8] | 0.38 | 1.88 | 0.81 | 370
6 | CCCCNc1nc(N)ncc1OCCC(C)C [Compound 9] | 1.55 | 19.00 | 9.70 | 9720
7 | CCCCNc1nc(N)ncc1OCCCC [Compound 10] | 1.28 | 8.14 | 2.82 | 1580
8 | CCCCNc1nc(N)ncc1OCc1ccc(Cl)c(Cl)c1 [Compound 11] | 0.60 | 4.52 | 3.50 | 780
9 | CCCCNc1nc(N)ncc1OCc1ccc(C(=O)OC)cc1 [Compound 12] | 0.26 | 1.49 | 1.12 | 2760
10 | CCCCNc1nc(N)ncc1OCCc1ccccc1 [Compound 13] | 2.26 | 13.18 | 5.23 | 2530
11 | CCCCNc1nc(N)ncc1OCc1ccccc1C [Compound 14] | 0.91 | 4.92 | 0.91 | 1810
12 | CCCCNc1nc(N)ncc1OCc1ccccc1Cl [Compound 15] | 0.17 | 2.31 | 1.06 | 170
13 | C=CCCOc1cnc(N)nc1NCCCC [Compound 16] | 0.49 | 2.68 | 0.59 | 790
14 | CCCCNc1nc(N)ncc1OCCOC [Compound 17] | 0.34 | 2.03 | 0.67 | 710
15 | CCCCNc1nc(N)ncc1OCc1ccncc1 [Compound 18] | 0.83 | 1.87 | 0.85 | 630
16 | C=CCCCCOc1cnc(N)nc1NCCCC [Compound 20] | 0.79 | 10.21 | 2.87 | 1330
17 | CCCCNc1nc(N)ncc1OCCO [Compound 21] | 1.61 | 2.69 | 0.64 | 3080
18 | CCCCNc1nc(N)ncc1OCc1cccnc1 [Compound 22] | 0.31 | 2.35 | 0.94 | 250
19 | CCCCNc1nc(N)ncc1OCc1cccc(C(=O)OC)c1 [Compound 23] | 0.26 | 2.55 | 1.45 | 10800
20 | CCCCNc1nc(N)ncc1OCCCO [Compound 24] | 1.99 | 2.42 | 1.50 | 2750
21 | CCCCNc1nc(N)ncc1OCc1ccccc1-c1ccccc1 [Compound 25] | 0.64 | >25 | >25 | 1550

Row | Compound | TLR7-dIRR2_LEC [1] | TLR8-wt_LEC [2] | TLR8-dIRR2_LEC [3] | EC50 [4] [nM]
22 | CCCCNc1nc(N)ncc1OCc1cc(C)no1 [Compound 26] | 0.49 | 3.90 | 1.52 | 580
23 | CCCCNc1nc(N)ncc1OCCN1CCOCC1 [Compound 27] | 0.78 | 5.36 | 0.64 | 1030
24 | CCCCNc1nc(N)ncc1OCCCC(N)=O [Compound 28] | 2.47 | 9.18 | 6.99 | 1750
25 | CCCCNc1nc(N)ncc1OCCCC#N [Compound 29] | 1.32 | 2.86 | 1.19 | 2970
26 | CCCCNc1nc(N)ncc1OCCN [Compound 30] | >25 | 6.44 | 1.16 | 9070
27 | CCCCNc1nc(N)ncc1OCc1cc(-c2ccc(F)cc2)on1 [Compound 33] | 0.36 | 1.78 | 1.17 | 1480
28 | CCCCNc1nc(N)ncc1OCc1cn2ccccc2n1 [Compound 34] | 0.06 | 0.83 | 0.61 | 50
29 | CCCCNc1nc(N)ncc1OCc1cc(-c2ccc(OC)cc2)no1 [Compound 35] | 0.39 | 1.67 | 1.66 | 1500
30 | CCCCNc1nc(N)ncc1OCc1cncn1C(C)c1ccccc1 (centres unmarked) [Compound 37] | 0.04 | 9.22 | 5.69 | 120
31 | CCCCNc1nc(N)ncc1OCc1ccccc1OC(F)(F)F [Compound 43] | 0.08 | 8.22 | 1.66 | 790
32 | CCCCNc1nc(N)ncc1OCc1ccc(C(=O)OC)cc1OC [Compound 44] | 0.16 | 3.11 | 1.96 | 590
33 | CCCCNc1nc(N)ncc1OCc1occc1C(=O)OC [Compound 45] | 0.17 | 0.58 | 0.40 | 170
34 | CCCCNc1nc(N)ncc1OCc1ccc(C(=O)OCC)o1 [Compound 46] | 0.19 | 3.85 | 1.96 | 2510
35 | CCCCNc1nc(N)ncc1OCc1occc1C(=O)OCC [Compound 47] | 0.20 | 1.87 | 0.66 | 330
36 | CCCCNc1nc(N)ncc1OCc1occ(C(=O)OC)c1C(=O)OC [Compound 49] | 0.31 | 3.72 | 2.07 | 550
37 | CCCCNc1nc(N)ncc1OCc1cncn1-c1ccccc1C [Compound 50] | 0.51 | >25 | >25 | 780
38 | CCCCNc1nc(N)ncc1OCc1cccc(C(F)(F)F)c1 [Compound 51] | 0.58 | 3.92 | 2.09 | 500
39 | CCCCNc1nc(N)ncc1OCc1cc(C)on1 [Compound 52] | 0.63 | 3.61 | 1.65 | 260
40 | CCCCNc1nc(N)ncc1OCc1cc(F)c(F)cc1OC [Compound 53] | 0.64 | 3.06 | 2.15 | 600
41 | CCCCNc1nc(N)ncc1OCCOCCOC [Compound 61] | 1.38 | 3.59 | 1.56 | 1910
